Assays:
[1] = test system: primary neonatal fibroblast cells; test: MTT assay, cytotoxicity of ergothioneine; type: cell-based, human; settings: all concentrations tested (0.04, 0.1, 0.3, and 1.0 mg/ml); 72 hours and one week; with and without 10 μM H2O2
Description: (§1) Primary cultures of human neonatal dermal fibroblasts (ATCC® PCS-201-010™) were established under standard culture conditions. Cells were seeded at 3×10^3 cells/cm^2 and were grown and maintained in Fibroblast Medium (Innoprot).
The MTT assay is a colorimetric assay that uses a yellow tetrazolium salt (3-(4,5-dimethylthiazol-2-yl)-2,5-diphenyltetrazolium bromide, or MTT) to measure metabolic activity of cells as a proxy for cell viability. MTT reduction rate is an indicator of the functional integrity of the mitochondria and as a result, of cellular viability. To determine the cytotoxicity of ergothioneine on primary neonatal fibroblast cells, the cells were seeded in 96 well plates (Nunc) at 0.35×10^4 cells/plate and 0.5×10^4 cells/plate for 72 hours and 1-week treatment. After 24 hours from seeding, the cells were washed once with phosphate-buffered saline (PBS) and treated with the respective compounds in cell culture media. Ergothioneine was dissolved in dimethyl sulfoxide (DMSO). […] Each condition was tested in triplicates with and without 10 μM H2O2. For positive and negative controls, 8 mM methyl methane sulfonate (MMS) and DMSO 100% were used, respectively. […] Absorbance was measured using an Envision multiplate reader at a wavelength of 570 nm.
The percentage of cell death was calculated using the following equation: […]

[2] = test system: primary neonatal fibroblast cells; test: Morphological analysis through optical microscopy visualization; type: cell-based, human; settings: concentrations of up to 1.0 mg/ml
[3] = test system: neonatal human fibroblast cells; test: Proliferative analysis (population doubling, growth curves); type: cell-based
Description: (§2) Primary cultures of neonatal human fibroblast cells were established. Cells were seeded at 5×10^3 cells/cm^2), in Fibroblast Medium (Innoprot). Media was renewed every 2 to 3 days and cells were passaged at sub-confluence (70-80%) every 7 days. Cells were expanded during eight weeks under standard and oxidative (10 μM H2O2) cell culture condition as described previously. Different concentrations of ergothioneine (0.04, 0.3, 0.1, and 1.0 mg/ml) or vehicle control were added to the treated or control cells, respectively. Treatment dilutions were prepared fresh in each passage with fresh media. Cell growth was monitored for each condition by counting cell numbers at each passage using a Countess™ cell counter (Invitrogen). Population doubling (PD) was calculated with the formula PD=3.322(Log(Cf)−Log (Ci))+X (where, Cf: Final concentration; Ci: initial concentration; X: PD last passage). One PD is equivalent to one round of cell replication.
(§3) Each treatment was tested in triplicate and in different plates. Each plate contained a control sample. Frozen vials were obtained at different time points for analysis of relative telomerase activity and telomere length.

telomerase = test: Relative telomerase activity (Q-TRAP); type: cell-based, human
Description: The quantitative polymerase chain reaction (PCR)-based telomeric repeat amplification protocol (Q-TRAP) is a sensitive and accurate PCR-based assay that enables the measurement of telomerase activity. Cellular pellets from neonatal fibroblast cells were lysed using the CHAPS (3-cholamidopropyl dimethylammonio 1-propanesulfonate) lysis buffer for protein extraction. Samples were stored at 4° C. and were used within 24 hours. Protein quantification was performed for each sample using Biorad protein assay (Bio-Rad Kit 50000002). A minimum of 0.3 mg/ml protein concentration was required to proceed with the analysis of the samples. Telomerase protein extracts are then incubated at 27° C. for 30 min to allow the telomerase in the protein extracts to elongate the TS primer by adding TTAGGG repeat sequences. Following the enzymatic reaction, telomerase extension products are then amplified and quantified by real-time qPCR using SYBR Green (a green fluorescent cyanine dye). PCR was initiated at 95° C. for 10 min, followed by a 40-cycle amplification (95° C. for 15 s, 60° C. for 60 s) and a melt curve stage step. Reactions were monitored and analyzed with QuantStudio 5 (Applied Biosystems). Telomerase activity in cell lines or samples is calculated based on the threshold cycle (Ct). All samples were run in triplicate.
The telomerase-positive standard dilution series is plotted against the telomere protein concentration (r^2>0.9) as a standard curve of Ct values. The standard curve is generated by graphing threshold cycles (Ct values) of HeLa cell line standards against log of 1000, 333, 111, 37.03, 12.34, 4.11, 1.37 and 0.45 ng of protein (whole cell extract).

[4] = test system: human neonatal dermal fibroblasts; test: Telomere length measurement by Telomere Analysis Technology (TAT, HT Q-FISH); type: cell-based; settings: for proportion of short telomeres (<3 kbp): control 8.1±0.6
Description: as §1, §2, §3
All telomere length measurements were performed using Life Length's proprietary Telomere Analysis Technology (TAT®). TAT® measures telomere length using a high-throughput (HT) Q-FISH (quantitative fluorescent in situ hybridization) technique as previously described. This method is based on a quantitative fluorescence in-situ hybridization method modified for measuring individual chromosomes of cells in interphase. In brief, telomeres are hybridized with a fluorescent Peptide Nucleic Acid probe (PNA) that recognizes three telomere repeats (sequence: Alexa488-OO-CCCTAACCCTAACCCTAA, purchased from Panagene). The images of the nuclei and telomeres are captured by a high-content screen system. The intensity of the fluorescent signal from the telomeric PNA probes that hybridize to a given telomere is proportional to the length of that telomere. The intensities of fluorescence are translated to base pairs (bp) through a standard regression curve which is generated using control cell lines with known telomere length. TAT® not only measures telomere length in absolute base pair units, it also provides an assessment of the distribution, 50th and 20th percentiles of telomere length and the percent of short telomeres, allowing for a more comprehensive analysis of each sample. All samples are run in quintuplicate.
Results obtained from each treatment and at each time point were compared with the appropriate control group using Student's t test (independent samples t-test).

[5] = ingested; rats; cited from earlier work
[6] = humans, supplementation for 7 days, cited from earlier work

## C[N+](C)(C)[C@@H](Cc1c[nH]c(=S)[nH]1)C(=O)[O-] [ergothioneine]
[1]
  cell death: < 20%
[2]
  deleterious effects by morphological analysis: did not produce any deleterious effects
[3]; oxidative culture conditions (10 μM H2O2), 1.0 or 0.3 mg/ml, after Week 4
  proliferative capacity vs control: increase in their proliferative capacity
[3]; standard culture conditions, 0.04-1.0 mg/ml, 8 weeks
  proliferative capacity vs control: no differences
telomerase; 6 hours, all dose levels
  telomerase activity vs control cells: significantly lower
telomerase; 24 hours, all dose levels, p<0.05
  telomerase activity, higher compared with control cells: 50-90%
telomerase; 48 hours, statistically significant only for 0.04 mg/ml and 1.0 mg/ml
  telomerase activity vs control: still elevated
telomerase; 72 hours
  telomerase activity vs control: not significantly different
[4]; dose of 0.3 mg/ml
  effect on telomeres (FIG. 7D): telomere lengthening
[4]; oxidative conditions (10 μM H2O2), Week 4, 0.1 or 1.0 mg/ml, p<0.05
  median telomere length vs control: higher median telomere length
[4]; oxidative conditions (10 μM H2O2), Week 8, 0.04 mg/ml, control 8725±94
  median telomere length: 9015±112 bp
[4]; oxidative conditions (10 μM H2O2), Week 8, 0.1 mg/ml, control 8725±94
  median telomere length: 8794±212 bp
[4]; oxidative conditions (10 μM H2O2), Week 8, 0.3 mg/ml, control 8725±94 bp, in bp
  median telomere length: 9068±24
[4]; oxidative conditions (10 μM H2O2), Week 8, 1.0 mg/ml, control 8725±94
  median telomere length: 8997±171 bp
[4]; oxidative conditions, Week 4, 0.1, 0.3, or 1.0 mg/ml, p<0.05
  20th percentile telomere length vs control: greater telomere length
[4]; oxidative conditions, Week 4, all concentrations, significant for 0.04, 0.1 and 1.0 mg/ml
  reduction of telomere shortening rate: 27-52%
[4]; oxidative conditions, Week 4 and Week 8, all concentrations
  percentage of short telomeres (<3 kbp) vs control: reduced the percentage of short telomeres
[4]; oxidative conditions, Week 8, all concentrations
  20th percentile telomere length vs control: significant increases
[4]; oxidative conditions, Week 8, did not reach statistical significance
  telomere shortening rate vs control: appeared to be lower
[4]; standard conditions, Week 4, 0.3 mg/ml or 1.0 mg/ml
  20th percentile telomere length vs control: greater
[4]; standard conditions, Week 4, 0.3 mg/ml
  proportion of short telomeres (<3 kbp): 7.3±1.1%
[4]; standard conditions, Week 4, 0.3 mg/ml, control 9378±107
  median telomere length: 9637±340 bp
[4]; standard conditions, Week 4, 1.0 mg/ml
  proportion of short telomeres (<3 kbp): 6.8±1.0%
[4]; standard conditions, Week 4, 1.0 mg/ml, control 9378±107
  median telomere length: 9745±206 bp
[4]; standard conditions, Week 4, 1.0 mg/ml, p=0.09
  telomere shortening rate vs control: trend for decreased telomere shortening rate
[4]; standard conditions, Week 4, 0.1 or 0.3 mg/ml, normalized by population doublings
  telomere shortening rate vs control: significantly lower
[4]; standard conditions, Week 8
  protective effects on telomeres seen at Week 4: no longer present
[5]
  whole-body half-life: 1 month
[6]; approximately
  concentration in whole blood: 30 to 40 µM
[6]
  concentration in plasma: approximately 3 μM

Source: US20220387392A1, “METHODS AND COMPOSITIONS RELATED TO THE USE OF ERGOTHIONEINE” (priority 2020, published 2022)
